Results: EP4610269A1, “UROKINASE PLASMINOGEN ACTIVATOR SURFACE RECEPTOR (UPAR) LIGANDS FOR DIAGNOSTIC OR THERAPEUTIC USE” (3B Pharmaceuticals GmbH, priority 2024, dated 2025)
pIC50: −log10 of the molar value. Where a SMILES comes first, the peptide text is derived from it. Bridges are numbered along the chain shown (N, C = ends). [ ]: non-standard residue; d: D form. The star is where a group is joined. X4 = C[N+](C)(CCCC[C@H](NC(=O)CN1CCN(CC(=O)O)CCN(CC(=O)O)CCN(CC(=O)O)CC1)C(=O)*)CCCS(=O)(=O)[O-]; Acetyl(4-DOTA-piperazinyl) = O=C(O)CN1CCN(CC(=O)O)CCN(CC(=O)N2CCN(CC(=O)*)CC2)CCN(CC(=O)O)CC1; DOTA = O=C(O)CN1CCN(CC(=O)O)CCN(CC(=O)*)CCN(CC(=O)O)CC1; Pro(trans-4-F) = O=C(O)[C@@H]1C[C@@H](F)CN1; Tyr(3-Cl) = N[C@@H](Cc1ccc(O)c(Cl)c1)C(=O)O; Oic = O=C(O)[C@@H]1C[C@@H]2CCCC[C@@H]2N1; Pro(cis-4-F) = O=C(O)[C@@H]1C[C@H](F)CN1; Dopa = N[C@@H](Cc1ccc(O)c(O)c1)C(=O)O; Hyp = O=C(O)[C@@H]1C[C@@H](O)CN1; hPhe = N[C@@H](CCc1ccccc1)C(=O)O; Pentanoyl(4-Me) = CC(C)CCC(=O)*; Cit = NC(=O)NCCC[C@H](N)C(=O)O; Gly(cPr) = N[C@H](C(=O)O)C1CC1; Butoxycarbonyl = CCCCOC(=O)*; Phg = N[C@H](C(=O)O)c1ccccc1; Octanoyl = CCCCCCCC(=O)*; Orn = NCCC[C@H](N)C(=O)O; Api = NC1(C(=O)O)CCNCC1; Nva = CCC[C@H](N)C(=O)O; Deg = CCC(N)(CC)C(=O)O; Pentanoyl = CCCCC(=O)*

Experiments:
human uPAR (uPAR-Fc) = biological target: T1, human uPAR (uPAR-Fc) (Homo sapiens, UniProt Q03405); assay: Surface plasmon resonance (SPR) assay, single cycle kinetics; assay type: binding; conditions: pKD category for uPAR SPR activity assay; uPAR-Fc on Protein A-Chip, 25°C; read-out: pKD CAT (converted)
T1 construct: comprising amino acids Leu23-Arg303 according to UniProt entry Q03405.1; purchased R&D Systems 10378-UK-100
T1 sequence (Q03405 23-303): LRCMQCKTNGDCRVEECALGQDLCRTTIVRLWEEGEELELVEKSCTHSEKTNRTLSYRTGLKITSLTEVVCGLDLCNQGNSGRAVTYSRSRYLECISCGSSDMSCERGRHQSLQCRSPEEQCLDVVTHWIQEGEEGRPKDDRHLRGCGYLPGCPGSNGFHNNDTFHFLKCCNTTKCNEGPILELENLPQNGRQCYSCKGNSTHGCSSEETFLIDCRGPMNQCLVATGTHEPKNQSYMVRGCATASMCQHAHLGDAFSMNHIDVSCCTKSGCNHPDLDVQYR
How it was run: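 uPAR-Fc (Leu23-Arg303 extracellular domains, human IgG1 Fc) captured on Protein A chip to ~2000 RU; single-cycle kinetics at 25°C in HEPES running buffer pH 7.4 with 0.1% DMSO. KD from double-referenced sensorgrams fitted to 1:1 Langmuir model, reported as pKD.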

[1] = biological target: T2, uPAR-expressing HEC-265 human endometrial adenocarcinoma cells (Homo sapiens, UniProt Q03405); assay: Competitive FACS binding assay; conditions: pIC50 category of FACS binding
T2 construct: Cell surface uPAR-expressing HEC-265 human endometrial adenocarcinoma cells; host or cells: HEC-265
T2 sequence (Q03405 23-335): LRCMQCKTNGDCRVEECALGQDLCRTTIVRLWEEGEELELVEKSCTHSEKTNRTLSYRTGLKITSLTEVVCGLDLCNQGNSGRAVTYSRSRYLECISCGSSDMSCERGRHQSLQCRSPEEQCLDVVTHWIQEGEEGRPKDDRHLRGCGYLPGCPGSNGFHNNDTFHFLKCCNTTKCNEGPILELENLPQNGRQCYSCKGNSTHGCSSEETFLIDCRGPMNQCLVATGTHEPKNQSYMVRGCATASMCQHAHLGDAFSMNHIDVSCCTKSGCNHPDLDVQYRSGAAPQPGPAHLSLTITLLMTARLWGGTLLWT
How it was run: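 HEC-265 cells incubated 1 h at 4 °C with 10 nM biotinylated uPAR peptide tracer plus increasing test compound, then stained with APC-streptavidin on ice. Median APC fluorescence by flow cytometry; 4PL fit gives pIC50.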

| Compound | Kd (human uPAR (uPAR-Fc)) [nM] | pIC50 [1] |
| --- | --- | --- |
| CC[C@H](C)[C@@H]1NC(=O)[C@@H](C)NC(=O)[C@@H]2C[C@@H](F)CN2C(=O)[C@H](Cc2ccccc2)NC(=O)[C@H](Cc2ccc(O)cc2)NC(=O)[C@H](CCC(N)=O)NC(=O)[C@H](CCCNC(N)=O)NC(=O)[C@@H](NC(=O)CCC(C)C)CSSC[C@@H](C(N)=O)NC(=O)[C@H](CC(C)C)NC1=O [UPAR-178, iHex-[Cys-Cit-Gln-Tyr-Phe-4Tfp-ala-Ile-Leu-Cys]-NH2] ({Pentanoyl(4-Me)}-C[Cit]QYF[Pro(trans-4-F)][dA]ILC-NH2; disulfide 1-10) | 1.58 to 10 | ≥ 8.00 |
| CCCCC(=O)N[C@H]1CSSC[C@@H](C(N)=O)NC(=O)[C@H](CCC)NC(=O)C(CC)(CC)NC(=O)[C@@H]2C[C@@H](O)CN2C(=O)[C@@H]2CCCN2C(=O)[C@H](Cc2ccccc2)NC(=O)[C@H](Cc2ccc(O)cc2)NC(=O)[C@H](CCC(N)=O)NC(=O)[C@H](CCCNC(=N)N)NC1=O [UPAR-179, Pent-[Cys-Arg-Gln-Tyr-Phe-Pro-Hyp-Deg-Nva-Cys]-NH2] (Pentanoyl-CRQYFP[Hyp][Deg][Nva]C-NH2; disulfide 1-10) | > 100 | ≤ 6.90 |
| CC[C@H](C)[C@@H]1NC(=O)[C@@H](C)NC(=O)[C@@H]2CCCN2C(=O)[C@H](CCc2ccccc2)NC(=O)[C@H](Cc2ccc(O)cc2)NC(=O)[C@H](CCC(N)=O)NC(=O)[C@H](CCCNC(N)=O)NC(=O)[C@@H](NC(=O)CCC(C)C)CSSC[C@@H](C(N)=O)NC(=O)[C@H](CC(C)C)NC1=O [UPAR-180, iHex-[Cys-Cit-Gln-Tyr-Hfe-Pro-ala-Ile-Leu-Cys]-NH2] ({Pentanoyl(4-Me)}-C[Cit]QY[hPhe]P[dA]ILC-NH2; disulfide 1-10) | > 100 | ≤ 6.90 |
| CCCCOC(=O)N[C@H]1CSSC[C@@H](C(N)=O)NC(=O)[C@H](CCC)NC(=O)[C@H]([C@@H](C)CC)NC(=O)[C@@H]2C[C@@H](O)CN2C(=O)[C@@H]2C[C@H](F)CN2C(=O)[C@H](Cc2ccccc2)NC(=O)[C@H](Cc2ccc(O)cc2)NC(=O)[C@H](CCCCNC(=O)CN2CCN(C(=O)CN3CCN(CC(=O)O)CCN(CC(=O)O)CCN(CC(=O)O)CC3)CC2)NC(=O)[C@H]([C@@H](C)O)NC1=O [UPAR-181, Butoc-[Cys-Thr-Lys(DOTA-PPAc)-Tyr-Phe-4Cfp-Hyp-Ile-Nva-Cys]-NH2] (Butoxycarbonyl-CTK(Acetyl(4-DOTA-piperazinyl))YF[Pro(cis-4-F)][Hyp]I[Nva]C-NH2; disulfide 1-10) | < 1.58 | ≥ 8.00 |
| CC[C@H](C)[C@@H]1NC(=O)[C@@H](C)NC(=O)[C@@H]2CCCN2C(=O)[C@H](Cc2ccccc2)NC(=O)[C@H](Cc2ccc(O)cc2)NC(=O)[C@H](CCC(N)=O)NC(=O)[C@H](CCCNC(N)=O)NC(=O)[C@@H](NC(=O)CCC(C)C)CSSC[C@@H](C(N)=O)NC(=O)[C@H](C(C)C)NC1=O [UPAR-184, iHex-[Cys-Cit-Gln-Tyr-Phe-Pro-ala-Ile-Val-Cys]-NH2] ({Pentanoyl(4-Me)}-C[Cit]QYFP[dA]IVC-NH2; disulfide 1-10) | 1.58 to 10 | ≥ 8.00 |
| CCCCC(=O)N[C@H]1CSSC[C@@H](C(N)=O)NC(=O)[C@H](CCC)NC(=O)[C@H]([C@@H](C)CC)NC(=O)[C@@H]2C[C@@H](O)CN2C(=O)[C@@H]2CCCN2C(=O)[C@H](Cc2ccccc2)NC(=O)[C@H](Cc2ccc(O)cc2)NC(=O)[C@H](CCC(N)=O)NC(=O)C2(CCNCC2)NC1=O [UPAR-186, Pent-[Cys-Apc-Gln-Tyr-Phe-Pro-Hyp-Ile-Nva-Cys]-NH2] (Pentanoyl-C[Api]QYFP[Hyp]I[Nva]C-NH2; disulfide 1-10) | < 1.58 | ≥ 8.00 |
| CC(C)CCC(=O)N[C@H]1CSSC[C@@H](C(N)=O)NC(=O)[C@H](CC(C)C)NC(=O)[C@H](C2CC2)NC(=O)[C@@H](C)NC(=O)[C@@H]2CCCN2C(=O)[C@H](Cc2ccccc2)NC(=O)[C@H](Cc2ccc(O)cc2)NC(=O)[C@H](CCC(N)=O)NC(=O)[C@H](CCCNC(N)=O)NC1=O [UPAR-187, iHex-[Cys-Cit-Gln-Tyr-Phe-Pro-ala-Cpa-Leu-Cys]-NH2] ({Pentanoyl(4-Me)}-C[Cit]QYFP[dA][Gly(cPr)]LC-NH2; disulfide 1-10) | > 100 | ≤ 6.90 |
| CC[C@H](C)[C@@H]1NC(=O)[C@@H](C)NC(=O)[C@@H]2CCCN2C(=O)[C@H](Cc2ccccc2)NC(=O)[C@H](Cc2ccc(O)c(Cl)c2)NC(=O)[C@H](CCC(N)=O)NC(=O)[C@H](CCCNC(N)=O)NC(=O)[C@@H](NC(=O)CCC(C)C)CSSC[C@@H](C(N)=O)NC(=O)[C@H](CC(C)C)NC1=O [UPAR-188, iHex-[Cys-Cit-Gln-Mcy-Phe-Pro-ala-Ile-Leu-Cys]-NH2] ({Pentanoyl(4-Me)}-C[Cit]Q[Tyr(3-Cl)]FP[dA]ILC-NH2; disulfide 1-10) | < 1.58 | ≥ 8.00 |
| CCCCC(=O)N[C@H]1CSSC[C@@H](C(N)=O)NC(=O)[C@H](CCC)NC(=O)[C@H]([C@@H](C)CC)NC(=O)[C@@H]2C[C@@H]3CCCC[C@@H]3N2C(=O)[C@@H]2CCCN2C(=O)[C@H](Cc2ccccc2)NC(=O)[C@H](Cc2ccc(O)cc2)NC(=O)[C@H](CCC(N)=O)NC(=O)[C@H](CCCNC(=N)N)NC1=O [UPAR-190, Pent-[Cys-Arg-Gln-Tyr-Phe-Pro-Oic-Ile-Nva-Cys]-NH2] (Pentanoyl-CRQYFP[Oic]I[Nva]C-NH2; disulfide 1-10) | < 1.58 | 7.50 to 7.90 |
| CCCCOC(=O)N[C@H]1CSSC[C@@H](C(N)=O)NC(=O)[C@H](CCC)NC(=O)[C@H]([C@@H](C)CC)NC(=O)[C@@H]2C[C@@H](O)CN2C(=O)[C@@H]2C[C@H](F)CN2C(=O)[C@H](Cc2ccccc2)NC(=O)[C@H](Cc2ccc(O)cc2)NC(=O)[C@H](CCCNC(=O)CN2CCN(CC(=O)O)CCN(CC(=O)O)CCN(CC(=O)O)CC2)NC(=O)[C@H]([C@@H](C)O)NC1=O [UPAR-192, Butoc-[Cys-Thr-Orn(DOTA)-Tyr-Phe-4Cfp-Hyp-Ile-Nva-Cys]-NH2] (Butoxycarbonyl-CT[Orn](DOTA)YF[Pro(cis-4-F)][Hyp]I[Nva]C-NH2; disulfide 1-10) | < 1.58 | ≥ 8.00 |
| CCCCCCCC(=O)N[C@H]1CSSC[C@@H](C(N)=O)NC(=O)[C@H](CCC)NC(=O)[C@H]([C@@H](C)CC)NC(=O)[C@@H]2C[C@@H](O)CN2C(=O)[C@@H]2CCCN2C(=O)[C@H](Cc2ccccc2)NC(=O)[C@H](Cc2ccc(O)cc2)NC(=O)[C@H](CCC(N)=O)NC(=O)[C@H](CCCNC(=N)N)NC1=O [UPAR-193, Oct-[Cys-Arg-Gln-Tyr-Phe-Pro-Hyp-Ile-Nva-Cys]-NH2] (Octanoyl-CRQYFP[Hyp]I[Nva]C-NH2; disulfide 1-10) | < 1.58 | ≥ 8.00 |
| CCCCOC(=O)N[C@H]1CSSC[C@@H](C(N)=O)NC(=O)[C@H](CCC)NC(=O)[C@H]([C@@H](C)CC)NC(=O)[C@@H]2C[C@@H](O)CN2C(=O)[C@@H]2C[C@H](F)CN2C(=O)[C@H](Cc2ccccc2)NC(=O)[C@H](Cc2ccc(O)c(O)c2)NC(=O)[C@H](CCCCNC(=O)[C@H](CCCC[N+](C)(C)CCCS(=O)(=O)[O-])NC(=O)CN2CCN(CC(=O)O)CCN(CC(=O)O)CCN(CC(=O)O)CC2)NC(=O)[C@H]([C@@H](C)O)NC1=O [UPAR-194, Butoc-[Cys-Thr-Lys(DOTA-Kzw)-Dopa-Phe-4Cfp-Hyp-Ile-Nva-Cys]-NH2] (Butoxycarbonyl-CTK(X4)[Dopa]F[Pro(cis-4-F)][Hyp]I[Nva]C-NH2; disulfide 1-10) | < 1.58 | ≥ 8.00 |
| CCCCC(=O)N[C@H]1CSSC[C@@H](C(N)=O)NC(=O)[C@H](CCC)NC(=O)[C@H]([C@@H](C)CC)NC(=O)[C@@H]2C[C@@H](O)CN2C(=O)[C@@H]2CCCN2C(=O)[C@H](Cc2ccccc2)NC(=O)[C@H](CC(C)C)NC(=O)[C@H](CCC(N)=O)NC(=O)[C@H](CCCNC(=N)N)NC1=O [UPAR-195, Pent-[Cys-Arg-Gln-Leu-Phe-Pro-Hyp-Ile-Nva-Cys]-NH2] (Pentanoyl-CRQLFP[Hyp]I[Nva]C-NH2; disulfide 1-10) | 1.58 to 10 | 7.50 to 7.90 |
| CCCCC(=O)N[C@H]1CSSC[C@@H](C(N)=O)NC(=O)[C@H](CCC)NC(=O)[C@H]([C@@H](C)CC)NC(=O)[C@@H]2C[C@@H](O)CN2C(=O)[C@@H]2CCCN2C(=O)[C@H](Cc2ccccc2)NC(=O)[C@H](c2ccccc2)NC(=O)[C@H](CCC(N)=O)NC(=O)[C@H](CCCNC(=N)N)NC1=O [UPAR-196, Pent-[Cys-Arg-Gln-Phg-Phe-Pro-Hyp-Ile-Nva-Cys]-NH2] (Pentanoyl-CRQ[Phg]FP[Hyp]I[Nva]C-NH2; disulfide 1-10) | > 100 | ≤ 6.90 |
| CCCCC(=O)N[C@H]1CSSC[C@@H](C(N)=O)NC(=O)[C@H](CCC)NC(=O)[C@H]([C@@H](C)CC)NC(=O)[C@@H]2C[C@@H](O)CN2C(=O)[C@@H]2CCCN2C(=O)[C@H](CC(C)C)NC(=O)[C@H](Cc2ccc(O)cc2)NC(=O)[C@H](CCC(N)=O)NC(=O)[C@H](CCCNC(=N)N)NC1=O [UPAR-197, Pent-[Cys-Arg-Gln-Tyr-Leu-Pro-Hyp-Ile-Nva-Cys]-NH2] (Pentanoyl-CRQYLP[Hyp]I[Nva]C-NH2; disulfide 1-10) | 1.58 to 10 | 7.50 to 7.90 |
